We go through five compounds from patent US6824967B2, “Method of preparing dye solution, and methods of producing silver halide emulsion and silver halide photographic material” (Fuji Photo Film Co., Ltd., priority 2002, dated 2004).

For series [1] the following is noted: pKa printed beside the base in Table 1; cited from earlier work.
A short description of series [2]: Degree of dissolution of dye, visual observation after ultrasonic irradiation. In kind it is physicochemical. The note with it: 1.0 g dye in 200 ml 1:1 methanol/water, ultrasonic 30 min at 25° C. Also on record: key: good: when it was in a completely dissolved state; poor: when it left some residue; failed: when it was in a hardly dissolved state.
Series [3] is described as follows: pH value of dye solution measured with a pH-meter. The following applies: 1.0 g dye in 200 ml 1:1 methanol/water. In kind it is physicochemical.
Setting [4] is: 1,8-diazabicyclo-7-undecene, 1.0 equivalents to dye.
Setting [5] is: 2,4,6-trimethylpyridine, 1.0 equivalents to dye.
Setting [6] is: N-methylmorpholine, 1.0 equivalents to dye.
[7] abbreviates: triethanolamine, 1.0 equivalents to dye.
Where [8] appears, read: triethanolamine, 1.2 equivalents to dye.
[9] abbreviates: triethylamine, 0.8 equivalents to dye.
[10] abbreviates: triethylamine, 1.0 equivalents to dye.
Where [11] appears, read: N,N-diisopropylethylamine, 1.0 equivalents to dye.
[12] abbreviates: pyridine, 1.0 equivalents to dye.

As for `CN1CCOCC1` [N-methylmorpholine], the “Base (pKa)” value in series [1] is “N-methylmorpholine (7.38)”.

As to `O=C(O)C[n+]1c(C=C2Sc3ccc(Cl)cc3N2CCCS(=O)(=O)[O-])sc2cc(Cl)sc21` [Dye S-37], the Degree of dissolution entry is reported as “good” in series [2] (setting [4]); “good” in series [2] (setting [5]); “good” in series [2] (setting [6]); “failed” in series [2] (base absent); “good” in series [2] (setting [7]); “good” in series [2] (setting [8]). Besides, the Degree of dissolution entry in series [2] (setting [9]) is “poor”; in series [2] (setting [10]), “good”. Also, the “pH Value of dye solution” value is 11.0 in series [3] (setting [4]); 7.2 in series [3] (setting [5]); 7.1 in series [3] (setting [6]); 6.2 in series [3] (base absent); 7.4 in series [3] (setting [7]); 7.5 in series [3] (setting [8]). Moreover, the “pH Value of dye solution” value in series [3] (setting [9]) is listed as 7.1; in series [3] (setting [10]), 9.6.

Take `O=C(O)C[n+]1c(C=C2Sc3ccc(Cl)cc3N2CCCS(=O)(=O)[O-])sc2ccc(Cl)cc21` [Dye S-14]: the Degree of dissolution entry was “good” in series [2] (setting [4]); “good” in series [2] (setting [11]); “failed” in series [2] (base absent); “failed” in series [2] (setting [12]); “good” in series [2] (setting [7]); “good” in series [2] (setting [8]). In addition, the results for the Degree of dissolution result in series [2] (setting [9]) and in series [2] (setting [10]) were “poor” and “good”, respectively. The “pH Value of dye solution” value in series [3] (setting [4]) was found to be 10.8; in series [3] (setting [11]), 10.1; in series [3] (base absent), 6.1; in series [3] (setting [12]), 5.7; in series [3] (setting [7]), 7.3; in series [3] (setting [8]), 7.4. Further, the “pH Value of dye solution” value in series [3] (setting [9]) is given as 6.9; in series [3] (setting [10]), 9.4.

For `O=C(O)C[n+]1c(C=C2Sc3ccc(Br)cc3N2CCCS(=O)(=O)[O-])sc2ccsc21` [Dye S-39], the Degree of dissolution result in series [2] (base absent) is on record as “failed”; in series [2] (setting [7]), “good”; in series [2] (setting [8]) it was “good”; in series [2] (setting [9]) it was “poor”; in series [2] (setting [10]), “good”. Besides, the “pH Value of dye solution” value in series [3] (base absent) is 6.3; in series [3] (setting [7]) it was 7.5; in series [3] (setting [8]), 7.6; in series [3] (setting [9]), 7.4; in series [3] (setting [10]), 9.7.

On to `Cc1cc(C)nc(C)c1` [2,4,6-Trimethylpyridine], for which the “Base (pKa)” value in series [1] is 2,4,6-trimethylpyridine (7.43).
